Test results from US20050107447A1, “Novel lysophosphatidic acid receptor agonists and antagonists” (priority 2003, published 2005).
Several values for one entry are separate records, joined by “and”; a condition that tells them apart may be missing. Equal entries are not always repeated. Entries after “also recorded” stand apart in the source; their conditions may differ.

Assays:
LPP1 (PAP2a) phosphatase = molecular target: T1, LPP1 (PAP2a) phosphatase (Homo sapiens, UniProt O14494); test: LPP inhibition, competition with 50 nM [32P]LPA; assay type: biochemical; details: 0.1, 1.0 and 10.0 mM vs 50 nM [32P]LPA
T1 sequence (O14494 1-284): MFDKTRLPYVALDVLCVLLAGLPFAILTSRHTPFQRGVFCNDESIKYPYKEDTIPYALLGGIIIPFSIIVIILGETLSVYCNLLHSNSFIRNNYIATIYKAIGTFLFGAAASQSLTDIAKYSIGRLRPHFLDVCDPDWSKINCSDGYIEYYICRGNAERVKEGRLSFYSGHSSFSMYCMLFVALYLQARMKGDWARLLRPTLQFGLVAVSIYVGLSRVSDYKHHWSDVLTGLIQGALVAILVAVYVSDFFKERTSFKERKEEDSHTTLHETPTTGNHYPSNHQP
Experimental: (§1) NOHPP was also tested for activity at the three cloned LPPs. Although the phosphonate head group eliminates the possibility of NOHPP acting as a substrate, it is possible that the compound could be a competitive inhibitor.

LPP2 (PAP2c) phosphatase = molecular target: T2, LPP2 (PAP2c) phosphatase (Homo sapiens, UniProt O43688); test: LPP inhibition, competition with 50 nM [32P]LPA; assay type: biochemical; details: 0.1, 1.0 and 10.0 mM vs 50 nM [32P]LPA
T2 sequence (O43688 1-288): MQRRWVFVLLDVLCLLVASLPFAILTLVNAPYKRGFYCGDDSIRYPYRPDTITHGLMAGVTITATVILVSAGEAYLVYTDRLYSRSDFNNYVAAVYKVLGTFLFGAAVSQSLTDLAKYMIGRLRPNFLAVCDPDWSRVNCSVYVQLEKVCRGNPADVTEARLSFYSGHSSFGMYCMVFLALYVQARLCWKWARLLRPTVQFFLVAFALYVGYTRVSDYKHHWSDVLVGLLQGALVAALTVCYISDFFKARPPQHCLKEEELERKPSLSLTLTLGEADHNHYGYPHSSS
Experimental: as §1

LPP3 (PAP2b) phosphatase = molecular target: T3, LPP3 (PAP2b) phosphatase (Homo sapiens, UniProt O14495); test: LPP inhibition, competition with 50 nM [32P]LPA; assay type: biochemical; details: for Rank order potency of LPP inhibition: LPP3 vs LPP1 vs LPP2
T3 sequence (O14495 1-311): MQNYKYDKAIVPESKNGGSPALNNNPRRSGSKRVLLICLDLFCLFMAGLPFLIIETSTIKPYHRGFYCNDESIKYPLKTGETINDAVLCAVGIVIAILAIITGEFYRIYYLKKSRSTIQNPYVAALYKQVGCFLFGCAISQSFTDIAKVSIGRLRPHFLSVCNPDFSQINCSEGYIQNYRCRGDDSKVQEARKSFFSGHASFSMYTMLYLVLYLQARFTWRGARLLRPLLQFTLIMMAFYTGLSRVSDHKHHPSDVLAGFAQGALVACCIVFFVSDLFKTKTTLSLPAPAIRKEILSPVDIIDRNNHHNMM
Experimental: as §1

LPA2 [1] = molecular target: T4, LPA2 (Homo sapiens, UniProt Q9HBW0); test: GTP[γ35S] binding, LPA2 transfected HEK293T cell membranes; assay type: biochemical; parameters: expressed in transfected cells; host or cells: HEK293T (transient, calcium phosphate)
Experimental: (§2) The appropriate receptor plasmid DNA (encoding mouse LPA1, human LPA2 or human LPA3) was mixed with equal amounts of expression plasmids (pcDNA3) encoding a mutated (C351F) rat Gi2a, cow β1, and γ2 proteins and these DNAs were used to transfect monolayers of HEK293T cells (where ‘T’ indicates expression of the SV-40 virus large T antigen) using the calcium phosphate precipitate method. After about 60 hours, cells were harvested, membranes were prepared, aliquoted and stored at −70° C. until use.
(§3) The GTP[35 γS] assay was performed as described by us previously. Membranes containing 5 ug of protein were incubated in 0.1 ml GTP-binding buffer (in mM: HEPES 50, NaCl 100, MgCl2 10, pH7.5) containing […], […], 0.1 nM GTP[35 γS] (1200 Ci/mmol), and indicated lipid(s) for 30 minutes at 30° C. Samples were analyzed for membrane-bound radionuclide using a Brandel Cell Harvester (Gaithersburg, Md.).
(§4) The X-intercept of the linear transformation is equal to the inverse log of the κ1.
(§5) Membranes prepared from these cells are used to measure GTPγ[^35S] binding as a function of test compound concentration. The resulting dose-response curves provide relative potency (EC50) and efficacy, (Emax) for the test compounds.

LPA3 [2] = molecular target: T5, LPA3 (Homo sapiens, UniProt Q9UBY5); test: GTP[γ35S] binding, LPA3 transfected HEK293T cell membranes; assay type: biochemical; parameters: expressed in transfected cells; host or cells: HEK293T (transient, calcium phosphate)
T5 sequence (Q9UBY5 1-353): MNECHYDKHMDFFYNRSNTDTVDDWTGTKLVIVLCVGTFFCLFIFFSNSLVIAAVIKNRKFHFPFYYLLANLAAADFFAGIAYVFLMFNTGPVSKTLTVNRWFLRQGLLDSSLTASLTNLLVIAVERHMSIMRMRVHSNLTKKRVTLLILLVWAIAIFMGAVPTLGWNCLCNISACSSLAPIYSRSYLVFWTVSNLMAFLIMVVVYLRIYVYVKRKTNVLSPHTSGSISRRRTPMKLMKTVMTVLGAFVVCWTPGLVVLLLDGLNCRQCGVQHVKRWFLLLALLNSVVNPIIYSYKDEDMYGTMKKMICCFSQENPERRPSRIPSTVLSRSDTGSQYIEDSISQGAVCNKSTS
Experimental: as §2, §3, §4, §5

LPA1 [3] = molecular target: T6, LPA1 (Mus musculus, UniProt P61793); test: GTP[γ35S] binding, LPA1 transfected HEK293T (or RH7777) cell membranes; assay type: biochemical; parameters: expressed in transfected cells; host or cells: HEK293T (transient, with G protein plasmids); some results from RH7777 rat hepatoma membranes transfected with LPA1 DNA only
Experimental: as §2, §3, §4, §5

human LPA1 = molecular target: T7, human LPA1 (Homo sapiens, UniProt Q92633); test: GTP[γ35S] binding, recombinant baculovirus-infected insect Sf9 cell membrane preparation; assay type: biochemical; details: Sf9 membranes
T7 construct: expressed in transfected cells; host or cells: Sf9 insect cells, recombinant baculovirus
Experimental: (§6) The same activity was determined with human LPA1 using a recombinant baculovirus-infected insect Sf9 cell membrane preparation.

[4] = tested on: HEK293T cells (express LPA1 and LPA3, not LPA2); test: Block of LPA-induced rises in free intracellular calcium in HEK293T cells (FLIPR); assay type: cell-based; details: specificity control
Description: as §4

LPA receptors = test: Whole cell assays of calcium mobilization or inhibition of cAMP accumulation (agonist activity); assay type: cell-based
Experimental: (§7) Assays for cAMP accumulation were conducted on populations of 5×10^5 cells stimulated with […] in the presence of the phosphodiesterase inhibitor isomethylbutylxanthine (IBMX) for 15 minutes at 30° C. cAMP was measured by automated radioimmunoassay.
A FLIPR™ (Molecular Devices, Inc.) was used to measure intracellular calcium in A431 and HEK293T cells. A431 cells were seeded (−50,000 cells/well) in 96-well clear bottom black microplates (Corning Costar Corp., Cambridge, Mass.) and left overnight in CO2 incubator at 37° C. HEK293T cells were treated likewise, but seeded onto poly D-lysine coated microplates (Becton Dickinson, Franklin Lakes, N.J.). A431 cells were dye-loaded with 4 μM Fluo-3 AM ester (Molecular Probes Inc., Eugene, Oreg.) in a loading buffer (1×HBSS buffer, pH 7.4, containing 20 mM HEPES, 0.1% BSA, and 2.5 mM probenecid) for 1 hour at 37° C. Cells were then washed four times with the loading buffer and exposed in the FLIPR™ to sets of compounds. HEK293T cells were loaded with 2 μM Fluo-4 AM ester (Molecular Probes Inc., Eugene, Oreg.) in the same loading buffer without probenecid for 30 minutes and washed four times before being exposed to compounds in the FLIPR™. […]
as §6

[5] = tested on: renal injury following ischemia-reperfusion (IR); test: Renal ischemia-reperfusion model; assay type: in vivo, mouse; details: for Plasma creatinine: 24 hrs of reperfusion, n=4
Experimental: C57BL6 mice (20 gm, 8 wks of age) were used for all studies. The surgical protocol of renal IR has been previously described (Okusa et al., 1999. Am. J. Physiol. (Renal Physiol.) 277: F404-412; Okusa, et al., 2000 Am. J. Physiol. (Renal Physiol.) 279; F809-F818, and Okusa et al., 2001 Kidney Int. 59:2114-2125). For the injury protocol, bilateral flank incisions were made under anesthesia with a regimen that consists of ketamine (100 mg/kg, ip.), xylazine (10 mg/kg, ip.) and acepromazine (1 mg/kg, im.). Renal pedicles were exposed and cross-clamped for 27-32 min. Kidneys were examined for immediate reperfusion following clamp removal. Wounds were closed and mice were returned to cages. […] The mice were sacrificed and the kidneys harvested at 1, 4, 8, 24, 48 hrs, 5 and 7 days. […] Mice were sacrificed following 24 hrs of reperfusion and plasma was obtained for BUN and creatinine.

LPA1 [6] = molecular target: T6, LPA1; test: cAMP accumulation in RH7777 cells stably expressing LPA1; assay type: cell-based; parameters: expressed in transfected cells
Experimental: as §7
Rat hepatoma RH7777 cell monolayers were transfected with the mLPA1 plasmid DNA using the calcium phosphate precipitate method and clonal populations expressing the neomycin phosphotransferase gene were selected by addition of geneticin (G418) to the culture media. The RH7777 cells were grown in monolayers at 37° C. in a 5% CO02/95% air atmosphere in growth media consisting of: 90% MEM, 10% fetal bovine serum, 2 mM glutamine and 1 mM sodium pyruvate.
(§8) wls-b8L and the other phosphonates were also tested also for activity in three whole cell assays. […] Finally, the activity of wls-b8L in activating a chloride conductance in Xenopus laevis ooctyes was measured.

human platelets = test: Aggregation of human platelets; assay type: cell-based; details: concentrations up to 10 micromolar
MDA MB-231 cells = test: Calcium mobilization through endogenous LPA receptors in MDA MB-231 cells; assay type: cell-based; details: 1 μM
Experimental: as §8

[7] = tested on: endogenous LPA receptor of Xenopus laevis oocytes; test: Chloride conductance in Xenopus laevis oocytes, endogenous receptor; assay type: cell-based; details: uninjected oocytes
Experimental: as §8

LPA3 [8] = molecular target: T5, LPA3; test: Chloride conductance in Xenopus oocytes injected with human LPA3 mRNA; assay type: cell-based; parameters: expressed in transfected cells; host or cells: Xenopus laevis oocytes injected with mRNA; details: 10 μM
Experimental: as §8

LPA2 [9] = molecular target: T4, LPA2; test: Chloride conductance in Xenopus oocytes injected with human LPA2 mRNA; assay type: cell-based; parameters: expressed in transfected cells; host or cells: Xenopus laevis oocytes injected with mRNA; details: 10 μM
Experimental: as §8

T4 sequence (Q9HBW0 whole entry): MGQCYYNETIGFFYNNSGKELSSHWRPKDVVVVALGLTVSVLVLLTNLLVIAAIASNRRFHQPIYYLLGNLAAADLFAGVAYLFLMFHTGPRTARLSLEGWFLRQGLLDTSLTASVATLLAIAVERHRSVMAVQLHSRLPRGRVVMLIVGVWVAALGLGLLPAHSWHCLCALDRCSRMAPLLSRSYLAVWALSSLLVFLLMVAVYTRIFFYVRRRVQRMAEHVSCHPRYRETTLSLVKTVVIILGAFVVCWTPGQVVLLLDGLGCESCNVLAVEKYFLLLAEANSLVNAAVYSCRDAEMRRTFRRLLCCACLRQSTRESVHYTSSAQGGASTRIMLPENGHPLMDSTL
T6 sequence (P61793 whole entry): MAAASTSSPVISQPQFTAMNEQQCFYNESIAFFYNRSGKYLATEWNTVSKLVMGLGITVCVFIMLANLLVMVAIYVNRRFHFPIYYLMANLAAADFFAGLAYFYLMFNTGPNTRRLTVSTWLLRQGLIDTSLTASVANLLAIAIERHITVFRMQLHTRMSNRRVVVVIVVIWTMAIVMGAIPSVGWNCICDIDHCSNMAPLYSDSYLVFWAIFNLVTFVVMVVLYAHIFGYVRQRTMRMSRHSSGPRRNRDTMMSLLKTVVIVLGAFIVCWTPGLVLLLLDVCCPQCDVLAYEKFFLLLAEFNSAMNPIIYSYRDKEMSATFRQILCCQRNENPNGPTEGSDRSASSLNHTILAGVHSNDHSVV
T7 sequence (Q92633 whole entry): as the sequence (P61793 whole entry) above, with A4I, S8I, Q22P, Y40H, V61I, D193E, H194N, V269I, N331S, N335T counted along it

CCCCCCCC/C=C\CCCCCCCC(=O)NCCC(O)P(=O)(O)O (racemic) [NOHPP, (9Z)-N-(rac-3-hydroxy-3-phosphonopropyl)Octadec-9-enamide]
Inhibition of LPP1 (LPP1 (PAP2a) phosphatase): to a lesser extent
Inhibition of LPP2 (LPP2 (PAP2c) phosphatase): inactive
Inhibition of LPP3 (LPP3 (PAP2b) phosphatase; 0.1, 1.0 and 10.0 mM vs 50 nM [32P]LPA): inhibited
Rank order potency of LPP inhibition (LPP3 (PAP2b) phosphatase): LPP3>LPP1>>LPP2
Rank order potency of LPP inhibition (LPP3 (PAP2b) phosphatase; listed as VPC12031): markedly better at the PAP2b (LPP3) than PAP2a (LPP1)
Agonist activity/efficacy at LPA2 (LPA2 [1]; compared to LPA): as efficacious as; also recorded: fully efficacious
Potency at LPA2 relative to LPA (LPA2 [1]; vs 1-oleoyl LPA): somewhat less potent; also recorded: about one log order less potent
Agonist activity/efficacy at LPA3 (LPA3 [2]; compared to LPA): far less efficacious; also recorded: little activity
Potency at LPA3 relative to LPA (LPA3 [2]; vs 1-oleoyl LPA): distinctly less potent; also recorded: greater than two log orders less potent
Agonist activity/efficacy at LPA1 (LPA1 [3]; compared to LPA): as efficacious as; also recorded: fully efficacious
Potency at LPA1 relative to LPA (LPA1 [3]; vs 1-oleoyl LPA): somewhat less potent; also recorded: about one log order less potent

CCCCCCCC/C=C\CCCCCCCC(=O)N[C@H](COP(=O)(O)O)Cc1ccc(OCc2ccccc2)cc1 [VPC12249]
Antagonist activity at human LPA1 (human LPA1): same activity
Antagonism of ATP-evoked calcium transients [4]: lack of antagonism
Agonist activity in whole cell assays (LPA receptors): completely devoid of agonist activity
Plasma creatinine ([5]; 0.01 mg/kg/2 hrs): 1.06±0.25
H and E sections, tissue preservation ([5]; 1 mg/kg/2 hr): marked degree of tissue preservation
Plasma creatinine ([5]; 1.0 mg/kg/2 hrs): 0.31±0.4
Block of LPA1-mediated inhibition of forskolin-induced cAMP increase (LPA1 [6]; RH7777 cells stably expressing LPA1): inhibited
Antagonism of LPA-induced GTP[γ35S] binding at LPA2 (LPA2 [1]): lack of antagonist activity
Antagonism of LPA-induced GTP[γ35S] binding at LPA3 (LPA3 [2]): surmountable antagonist
Ki (LPA3 [2]; Schild regression, block of LPA-induced GTP[γ35S] binding): 428 nM and ~425 nM

CCCCCCCC/C=C\CCCCCCCC(=O)NCCCP(=O)(O)O [wls-b8L, (9Z)-N-(3-phosphonopropyl)Octadec-9-enamide]
Aggregation of human platelets (human platelets): does not elicit aggregation
Calcium mobilization (MDA MB-231 cells): inactive
Activation of chloride conductance [7]: does not evoke this response
Inhibition of cAMP accumulation (agonist efficacy) (LPA1 [6]; concentration of 1 μM): fully efficacious
Activation of chloride conductance (LPA3 [8]): very modest response
Activation of chloride conductance (LPA2 [9]): very modest response
Receptor-type selectivity of agonist activity (LPA1 vs LPA2, LPA3) (LPA1 [3]; GTPγ[35S] binding): more potent and efficacious at LPA1 than at either LPA2 or LPA3; also recorded: distinctly more selective
